Data from patent US7563621B2, “Absorbing organic reagents into diagnostic test devices by formation of amine salt complexes” (Siemens Healhcare Diagnostics Inc, priority 2003, dated 2009).

Assay: Butanol/water partitioning of dye salts (Example 2)
Conditions: for Absorbance of Base in Butanol: butanol layer; for Partition Ratio of Butanol Absorbance to Water Absorbance: corrected by intensity factor; for Absorbance of Base in Water: water layer
[1] = 8-anilino-1-sulfonic acid salts
[2] = 8-anilino-1-sulfonic acid salts, λmax 269 nm
[3] = 8-anilino-1-sulfonic acid salts, reference absorbance in water / in butanol
[4] = 8-anilino-1-sulfonic acid salts, λmax 265 nm
[5] = bromocresol green salts, λmax 630 nm
[6] = bromocresol green salts, reference absorbance in water / in butanol
[7] = bromocresol green salts, λmax 615 nm
[8] = rosolic acid salts, aqueous reference saturated with butanol
[9] = rosolic acid salts, λmax 562 nm
[10] = rosolic acid salts, λmax 547 nm, four times less dilute solution measured, absorbance divided by four
[11] = erythrosin salts, reference absorbance in water / in butanol

Procedure: The five dye solutions were then treated with 1 equivalent of each base listed in Tables 1-5 (i.e., sodium hydroxide, TRIS, and triethylamine) to form salt solutions (i.e., sodium salt solutions, TRIS salt solutions, and triethylamine salt solutions respectively).
A 50 μL portion of each salt solution was then mixed with 950 μL water and 1000 μL butanol. […] Where necessary to deal with lingering interface phases, the samples were centrifuged.
Tests were then performed on the respective salt solutions to determine whether the salts of the respective dyes dissolved preferentially in butanol (a more lipophilic solvent) or water (a less lipophilic solvent). […] Spectroscopy versus the butanol blank or the water blank was done as 50 μL upper (butanol) or lower (aqueous) phase plus 950 μL corresponding solvent. All absorbances were blanked on solvent in a quartz cuvette and were baseline corrected at an absorbance of 900 nm before subsequent calculations to correct for cuvette placement, dust, etc. All absorbances were then measured at the wavelengths noted below.
Before determining the butanol to water absorbance levels, the absorbance of the solute in butanol was corrected for solvent dependent shifts in wavelength maximum and intensity based on the reference spectra of known gravimetric quantities of the dye salts in butanol and water. For such cases, the partition ratio of butanol absorbance to water absorbance was calculated using the following formula: Partition Ratio=Sample Absorbance in Butanol×Intensity Factor/Sample Absorbance in Water where the intensity factor was calculated using the following formula: Intensity Factor=Reference Sample Absorbance at λmax in water/Reference Sample Absorbance at λmax in butanol The intensity factor adjusts for those cases where the same concentration of dye in the two different solvents produced two different absorbances.

Structure (SMILES): O=S(=O)(O)c1cccc2cccc(Nc3ccccc3)c12 [8-Anilino-1-Sulfonic Acid, TRIS, 8-anilino-1-sulfonic acid]
- Raw Ratio of Butanol Absorbance to Water Absorbance [1]: 2.6
- Absorbance of Base in Butanol [2]: 0.129
- Partition Ratio of Butanol Absorbance to Water Absorbance [1]: 2.3
- Intensity Factor (IF) [3]: 0.89
- Absorbance of Base in Water [4]: 0.050

Structure (SMILES): CC1=C(Br)C(=O)C(Br)=C/C1=C(/c1ccccc1S(=O)(=O)O)c1cc(Br)c(O)c(Br)c1C [Bromocresol Green, TRIS, bromocresol green]
- Raw Ratio of Butanol Absorbance to Water Absorbance (bromocresol green salts): 1.7
- Absorbance of Base in Butanol [5]: 0.250
- Partition Ratio of Butanol Absorbance to Water Absorbance (bromocresol green salts): 4.2
- Intensity Factor (IF) [6]: 2.47
- Absorbance of Base in Water [7]: 0.146

Structure (SMILES): O=C1C=CC(=C(c2ccc(O)cc2)c2ccc(O)cc2)C=C1 [Rosolic Acid, TRIS, rosolic acid]
- Raw Ratio of Butanol Absorbance to Water Absorbance (rosolic acid salts): 17
- Intensity Factor (IF) [8]: 1.07
- Absorbance of Base in Butanol [9]: 0.055
- Partition Ratio of Butanol Absorbance to Water Absorbance (rosolic acid salts): 18
- Absorbance of Base in Water [10]: 0.003

Structure (SMILES): O=C(O)c1ccccc1-c1c2cc(I)c(=O)c(I)c-2oc2c(I)c(O)c(I)cc12 [Erythrosin, TRIS, erythrosin B]
- Raw Ratio of Butanol Absorbance to Water Absorbance (erythrosin salts): 0.31
- Absorbance of Base in Butanol (erythrosin salts, λmax 536 nm): 0.196
- Partition Ratio of Butanol Absorbance to Water Absorbance (erythrosin salts): 0.28
- Intensity Factor (IF) [11]: 0.90
- Absorbance of Base in Water (erythrosin salts, λmax 528 nm): 0.631

Structure (SMILES): O=C1C=CC(=C(c2ccc(O)cc2)c2ccc(O)cc2)C=C1 [Rosolic Acid, Sodium Hydroxide, rosolic acid, reference compound]
- Raw Ratio of Butanol Absorbance to Water Absorbance (rosolic acid salts): 1.7
- Intensity Factor (IF) [8]: 0.69
- Absorbance of Base in Butanol [9]: 0.147
- Partition Ratio of Butanol Absorbance to Water Absorbance (rosolic acid salts): 1.2
- Absorbance of Base in Water [10]: 0.085

Structure (SMILES): O=C1C=CC(=C(c2ccc(O)cc2)c2ccc(O)cc2)C=C1 [Rosolic Acid, Triethylamine, rosolic acid]
- Raw Ratio of Butanol Absorbance to Water Absorbance (rosolic acid salts): 12
- Intensity Factor (IF) [8]: 0.94
- Absorbance of Base in Butanol [9]: 0.077
- Partition Ratio of Butanol Absorbance to Water Absorbance (rosolic acid salts): 11
- Absorbance of Base in Water [10]: 0.006

Structure (SMILES): O=C(O)c1ccccc1-c1c2cc(I)c(=O)c(I)c-2oc2c(I)c(O)c(I)cc12 [Erythrosin, Sodium Hydroxide, erythrosin B, reference compound]
- Raw Ratio of Butanol Absorbance to Water Absorbance (erythrosin salts): 0.41
- Absorbance of Base in Butanol (erythrosin salts, λmax 536 nm): 0.237
- Partition Ratio of Butanol Absorbance to Water Absorbance (erythrosin salts): 0.38
- Intensity Factor (IF) [11]: 0.93
- Absorbance of Base in Water (erythrosin salts, λmax 528 nm): 0.574

Structure (SMILES): CC1=C(Br)C(=O)C(Br)=C/C1=C(/c1ccccc1S(=O)(=O)O)c1cc(Br)c(O)c(Br)c1C [Bromocresol Green, Triethylamine, bromocresol green]
- Raw Ratio of Butanol Absorbance to Water Absorbance (bromocresol green salts): 2.4
- Absorbance of Base in Butanol [5]: 0.237
- Partition Ratio of Butanol Absorbance to Water Absorbance (bromocresol green salts): 6.3
- Intensity Factor (IF) [6]: 2.58
- Absorbance of Base in Water [7]: 0.097

Structure (SMILES): O=S(=O)(O)c1cccc2cccc(Nc3ccccc3)c12 [8-Anilino-1-Sulfonic Acid, Sodium Hydroxide] [reference compound]
- Raw Ratio of Butanol Absorbance to Water Absorbance [1]: 1.9
- Absorbance of Base in Butanol [2]: 0.121
- Partition Ratio of Butanol Absorbance to Water Absorbance [1]: 1.8
- Intensity Factor (IF) [3]: 0.98
- Absorbance of Base in Water [4]: 0.065

Structure (SMILES): O=C(O)c1ccccc1-c1c2cc(I)c(=O)c(I)c-2oc2c(I)c(O)c(I)cc12 [Erythrosin, Triethylamine, erythrosin B]
- Raw Ratio of Butanol Absorbance to Water Absorbance (erythrosin salts): 0.40
- Absorbance of Base in Butanol (erythrosin salts, λmax 536 nm): 0.240
- Partition Ratio of Butanol Absorbance to Water Absorbance (erythrosin salts): 0.42
- Intensity Factor (IF) [11]: 1.04
- Absorbance of Base in Water (erythrosin salts, λmax 528 nm): 0.596

Structure (SMILES): CC1=C(Br)C(=O)C(Br)=C/C1=C(/c1ccccc1S(=O)(=O)O)c1cc(Br)c(O)c(Br)c1C [Bromocresol Green, Sodium Hydroxide, bromocresol green, reference compound]
- Raw Ratio of Butanol Absorbance to Water Absorbance (bromocresol green salts): 1.8
- Absorbance of Base in Butanol [5]: 0.315
- Partition Ratio of Butanol Absorbance to Water Absorbance (bromocresol green salts): 1.9
- Intensity Factor (IF) [6]: 1.03
- Absorbance of Base in Water [7]: 0.175
